Assay results published in publication PMC10216478, “Development of a Non-Peptide Angiotensin II Type 1 Receptor Ligand by Structural Modification of Olmesartan as a Biased Agonist” (Biomedicines, 2023).

target: T1, AT1 N295A receptor (Rattus norvegicus, UniProt P25095, N295A); assay: Competition binding study, 125I-[Sar1,Ile8]Ang II, AT1 N295A receptor; conditions: competition with 125I-[Sar1,Ile8]Ang II, n = 3, mean ± standard error, read-out: Binding affinity (Kd)
T1 construct: expressed in transfected cells; host or cells: COS7
T1 sequence (P25095 1-359 N295A): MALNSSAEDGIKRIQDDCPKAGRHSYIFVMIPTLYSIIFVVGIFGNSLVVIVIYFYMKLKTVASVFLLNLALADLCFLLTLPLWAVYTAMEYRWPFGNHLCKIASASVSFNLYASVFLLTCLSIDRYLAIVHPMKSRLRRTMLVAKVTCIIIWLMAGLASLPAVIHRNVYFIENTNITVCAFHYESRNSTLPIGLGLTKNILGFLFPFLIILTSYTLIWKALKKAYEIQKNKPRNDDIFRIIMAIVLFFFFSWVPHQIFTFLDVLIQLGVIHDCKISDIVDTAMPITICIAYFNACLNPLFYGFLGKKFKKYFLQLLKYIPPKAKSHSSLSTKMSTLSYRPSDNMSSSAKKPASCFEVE
Text: We mutated four amino acids in transmembrane (TM) III, VI, and VII in the AT1 receptor (L112A, Q257A, Y292A, and N295A receptors). We determined the mutation sites of the AT1 receptor according to ARB, which produced olmesartan derivatives with different interactions and functions toward the AT1 receptor, as previously reported by Zhang et al., since the additional 4-hydroxybenzyl groups of R781253 and R794847 were predicted to extend to a sub-pocket on the bottom of the AT1 receptor ligand-binding pocket consisting of Leu^112 and Gln^257. In addition, since the biased ligand TRV027 induced changes near the NPxxY motif in TM domain 7 that are related to receptor activation, Tyr^292 and Asn^295 in the AT1 receptor were mutated.
The synthetic rat AT1 receptor gene, which was cloned in the shuttle expression vector pMT-2, was used for expression and mutagenesis, as described previously. COS7 cells (No. CRL-1651, ATCC, Manassas, VA, USA) were cultured in 10% fetal bovine serum (FBS) and penicillin- and streptomycin-supplemented Dulbecco’s modified Eagle’s essential medium (PS-DMEM) in 5% CO2 at 37 °C. In the experiments, cells were grown without a cell-growth supplement. To express the AT1 receptor protein, 10 µg of purified plasmid DNA per 10^7 cells was used in the transfection. Wild-type and mutated AT1 receptors were transiently transfected into cells using Lipofectamine 2000 liposomal reagent (Roche Applied Science, Penzberg, Germany). Cells were plated and grown and were 70–90% confluent at the time of transfection. We incubated plasmid DNA (10 µg)–lipid (10 µL) complexes for 5 min at room temperature and added and incubated the complexes with cells for 24 h. We then analyzed the parameters in transfected cells. Cell viability was >95% according to trypan blue exclusion analysis in the control experiments. Transfected cells that had been cultured for 48–72 h were harvested. Cell membranes were prepared using the nitrogen Parr bomb disruption or freeze–thaw methods.
The Kd (nM) values of receptor binding were determined with ^125I-[Sar^1, Ile^8]AngII-binding experiments under equilibrium conditions. Binding kinetics were determined following the methods described in the literature. We carried out binding by using ^125I-[Sar^1, Ile^8] AngII (2200 Ci/mmol) and an increasing concentration (10^−11–10^−5 M) of each unlabeled compound. Nonspecific binding of ^125I-[Sar^1, Ile^8] Ang II was determined in the presence of a high concentration (10^−6 M) of unlabeled [Sar^1, Ile^8]. Next, the incubation mixture was separated by vacuum filtration through Whatman GF/C glass filters (Disposable Filter Funnels Grade GF/C, GE Healthcare), and presoaked with 0.1% polyethylenimine. The filter was washed with 3 mL of ice-cold stop buffer (25 mM Tris–HCl, pH 7.4, 1 mM MgCl2). The radioactivity trapped on the filters was quantified using an automatic γ-counter. The percentage (%) of specific binding of ^125I-[Sar^1, Ile^8]Ang II was calculated using the following formula: 100 × (% total binding of ^125I-[Sar^1, Ile^8]Ang II—nonspecific binding of ^125I-[Sar^1, Ile^8]Ang II)/(% total binding of ^125I-[Sar^1, Ile^8]Ang II).

Kd [nM]	Compound
> 10000	CCCc1nc(C(C)(C)O)c(C(=O)O)n1Cc1ccc(-c2cc(Cc3ccc(O)cc3)ccc2-c2nnn[nH]2)cc1 [R781253]
> 10000	CCCc1nc(C(C)(C)O)c(C(N)=O)n1Cc1ccc(-c2cc(Cc3ccc(O)cc3)ccc2-c2nnn[nH]2)cc1 [R794847]
69 ± 8	CCCc1nc(C(C)(C)O)c(C(N)=O)n1Cc1ccc(-c2ccccc2-c2nnn[nH]2)cc1 [R239470]
334 ± 105	CCCc1nc(C(C)(C)O)c(C(=O)O)n1Cc1ccc(-c2ccccc2-c2nnn[nH]2)cc1 [Olmesartan, olmesartan]
